Measured values reported in patent US9458179B2, “Quinuclidine, 1-azabicyclo[2.2.1]heptane, 1-azabicyclo [3.2.1]octane, and 1-azabicyclo[3.2.2]nonane compounds as alpha-7 nicotinic acetylcholine receptor ligands” (BRISTOL-MYERS SQUIBB COMPANY, priority 2012, dated 2016).

Target: T1, α-7 nicotinic ACh receptor ion channel (Rattus norvegicus, UniProt Q05941)
T1 construct: expressed in transfected cells
Assay: Ca2+-sensitive fluorescence-based FLIPR assay of α7 nicotinic receptor channel function (agonist activity)
Format: cell-based
Settings: FLIPR α7-HI (EC50, nM), HEK 293 cells, Ca2+ flux
Experimental: II) A Ca^2+-Sensitive, Fluorescence-Based Assay α-7 for Nicotinic Acetylcholine Receptor Channel Function in Mammalian Cells (“FLIPR”).
Lead compounds are evaluated for agonist activity at α-7, α3β4, α4αβ2, and α1β1δ1ε sub-types of nicotinic ACh receptor ion channels expressed in mammalian HEK 293 cells. Agonist potency and efficacy values are determined from kinetic fluorescence Ca^2+ influx measurements made using a 384 well FLIPR (Fluorescence Image Plate Reader). […] In this assay, channel expressing HEK cell lines seeded in 384 well assay plates are loaded with a membrane permeant fluorescent Ca^2+ indicator dye, whose 510 nm green emission signal increases in response to elevation of intracellular Ca^2+ concentration. The basal fluorescence from the cells is monitored in real time, followed by the acute addition of test compounds.
Reagents: The acetomethoxy (AM) ester of the Ca^2+ indicator dye Fluo-4 was obtained from InVitrogen, (Carlsbad, Calif.). Acetylcholine and all buffer constituents were purchased from Sigma Chemical Company, St. Louis, Mo. G418 and Minimal Essential Medium were purchased from InVitrogen Life Technologies, Carlsbad, Calif. Fetal bovine serum was purchased from (InVitrogen, Carlsbad, Calif.).
HEK-293 cells were grown in Minimal Essential Medium containing 10% (v/v) fetal bovine serum at 37° C. in a 5% CO2 incubator. HEK-293 cells stably expressing the ion channels were grown in the same medium with the addition of 500 μg/ml G418.
HEK-293 cells expressing the ion channels of interest were plated in 384 well, black-walled, clear-bottomed, poly-D-lysine coated plates at a density of ˜20,000 cells/well in 20 μl of Minimal Essential Medium containing 10% (v/v) fetal bovine serum and incubated for 2 days at 29° C. in a 5% CO2 incubator. Prior to assay, cells were loaded with the Fluo-4 AM ester. […] Dye loading was allowed to proceed for 90 minutes at room temperature at which time the dye loading solution was removed and replaced with 40 μl/well of Hanks buffer. Cells loaded with dye were loaded onto a FLIPR384 (Molecular Devices, Sunnyvale, Calif.). […] Emission was filtered using a 540+/−30 nm bandpass filter. For evaluation of the effects of test compounds using the Ca^2+ flux assay, compounds to be tested were provided in assay ready plates. For nicotinic receptor ion channel expressing cells, the assay was initiated by the addition of 20 μl/well of Hanks buffer containing test compounds. For all assays, data were collected at 1 Hz for 10 seconds (baseline), at which time the compound containing stimulus buffers are added, and further measurements collected at 0.33 Hz for 3 min.
The statistical robustness of the nicotinic receptor Ca^2+ flux assays is determined from blanks and totals wells. […] The raw fluorescence units data files generated on the FLIPR plate reader are automatically exported and processed by in-house data analysis tools. The reduced percent activation data for each concentration of test compound are fit using MathIQ fitting engine (ID Business Solutions Limited, Surrey, UK). Data were analyzed by fitting maximum amplitudes of change in fluorescence, for Ca^2+ flux for a given condition of test compound. […] Test compound efficacy values (Ymax values) are expressed relative to a maximal response to acetylcholine in the total wells.

T1 sequence (Q05941 23-502): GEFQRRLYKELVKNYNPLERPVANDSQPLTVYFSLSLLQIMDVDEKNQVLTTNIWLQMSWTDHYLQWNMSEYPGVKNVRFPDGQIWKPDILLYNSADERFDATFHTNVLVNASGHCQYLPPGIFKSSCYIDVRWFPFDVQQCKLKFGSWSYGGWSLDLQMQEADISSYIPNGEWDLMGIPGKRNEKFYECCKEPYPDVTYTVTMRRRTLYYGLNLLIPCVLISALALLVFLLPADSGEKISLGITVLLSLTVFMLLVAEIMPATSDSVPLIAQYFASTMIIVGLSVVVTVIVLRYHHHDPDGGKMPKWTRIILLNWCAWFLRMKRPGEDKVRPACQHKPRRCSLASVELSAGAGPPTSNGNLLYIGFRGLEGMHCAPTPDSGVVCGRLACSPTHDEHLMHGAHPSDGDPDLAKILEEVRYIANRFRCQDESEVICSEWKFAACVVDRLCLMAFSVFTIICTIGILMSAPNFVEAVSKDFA

Row | SMILES | EC50 (Table 1, activity class) | also measured
1 | COc1ccc2nc(/N=C3\OC4(CN5CCC4CC5)CN3C)sc2c1 (stereo not drawn) [Example 89, (Z)-6-Methoxy-N-(3-methyl-1′-azaspiro[oxazolidine-5,3′-bicyclo[2.2.2]octane]-2-ylidene)benzo[d]thiazol-2-amine] | – | EC50 (Table 4, activity class): > 1e+06 nM
2 | Clc1cccc2nc(NC3=NCC4(CN5CCC4CC5)N3)sc12 (stereo not drawn) [Example 53] | 100 to 1000 nM | –
3 | c1ccc2c(NC3=NCC4(CN5CCC4CC5)N3)ncnc2c1 (stereo not drawn) [Example 23] | 100 to 1000 nM | –
4 | c1csc(NC2=NCCC3(CN4CCC3CC4)O2)n1 (stereo not drawn) [Example 73] | – | EC50 (Table 3): 4530 nM; EC50 (Table 3, activity class): 1000 to 100000 nM
5 | c1cnc2sc(NC3=NCC4(CN5CCC4CC5)N3)nc2c1 (stereo not drawn) [Example 56] | < 100 nM | –
6 | O=c1ccc2nc(NC3=NCC4(CN5CCC4CC5)N3)sc2[nH]1 (stereo not drawn) [Example 42, 2-(1′,5′-Dihydrospiro[4-azabicyclo[2.2.2]octane-2,4′-imidazol]-2′-ylamino)[1,3]thiazolo[5,4-b]pyridin-5 (4H)-one] | 100 to 1000 nM | –
7 | c1cn(-c2cc(NC3=NCC4(CN5CCC4CC5)N3)ncn2)cn1 (stereo not drawn) [Example 61] | 100 to 1000 nM | –
8 | Clc1ccc2nc(NC3=NCC4(CN5CCC4CC5)N3)sc2n1 (stereo not drawn) [Example 28] | < 100 nM | –
9 | COc1ccc2nc(NC3=NCC4(CN5CCC4CC5)N3C)sc2n1 (stereo not drawn) [Example 47] | 100 to 1000 nM | –
10 | CCN1C(Nc2ncc(-c3ccccc3)s2)=NCC12CN1CCC2CC1 (stereo not drawn) [Example 6] | 1000 to 100000 nM | –
11 | Cc1ccc2nc(NC3=NCC4(CN5CCC4CC5)N3)oc2c1 (stereo not drawn) [Example 8, N-(6-Methyl-1,3-benzoxazol-2-yl)-1′,5′-dihydrospiro[4-azabicyclo[2.2.2]octane-2,4′-imidazol]-2′-amine] | < 100 nM | –
12 | c1ccc2sc(NC3=NCC4(CN5CCC4CC5)N3)nc2c1 (stereo not drawn) [Example 11] | < 100 nM | –
13 | CN1CC2(CN3CCC2CC3)O/C1=N\c1cnc(Cl)cn1 (stereo not drawn) [Example 91, (Z)-5-Chloro-N-(3-methyl-1′-azaspiro[oxazolidine-5,3′-bicyclo[2.2.2]octane]-2-ylidene)pyrazin-2-amine] | – | EC50 (Table 4, activity class): 1000 to 100000 nM
14 | c1ccc2cc(NC3=NCCC4(CN5CCC4CC5)O3)ncc2c1 (single isomer, unassigned) [Example 76a] | – | EC50 (Table 3, activity class): 100 to 1000 nM
15 | c1ccc2nc(NC3=NCC4(CN5CCC4CC5)N3)cnc2c1 (stereo not drawn) [Example 36] | 100 to 1000 nM | –
16 | CN1C(Nc2nc3ccc(F)nc3s2)=NCC12CN1CCC2CC1 (stereo not drawn) [Example 45] | 1000 to 100000 nM | –
17 | COc1ccc2nc(NC3=NCC4(CN5CCC4CC5)N3)sc2n1 (stereo not drawn) [Example 46] | 100 to 1000 nM | –
18 | c1ccc2nc(NC3=NCCC4(CN5CCC4CC5)O3)cnc2c1 (stereo not drawn) [Example 85] | – | EC50 (Table 3, activity class): 1000 to 100000 nM

Row | SMILES | EC50 (Table 1, activity class) | also measured
19 | Clc1cnc(NC2=NCC3(CN4CCC3CC4)N2)cn1 (stereo not drawn) [Example 7, N-(5-Chloro-2-pyrazinyl)-1′,5′-dihydrospiro[4-azabicyclo[2.2.2]octane-2,4′-imidazol]-2′-amine] | 100 to 1000 nM | –
20 | c1csc(NC2=NCC3(CN4CCC3CC4)N2)n1 (stereo not drawn) [Example 9] | 1000 to 100000 nM | EC50: 1060 nM
21 | c1ccc(COc2ccc3nc(NC4=NC5(CN4)CN4CCC5CC4)sc3n2)cc1 (stereo not drawn) [Example 39, N-(5-(benzyloxy)[1,3]thiazolo[5,4-b]pyridin-2-yl)-1′,5′-dihydrospiro[4-azabicyclo[2.2.2]octane-2,4′-imidazol]-2′-amine] | > 1e+06 nM | –
22 | Cc1ccc2c(NC3=NCC4(CN5CCC4CC5)N3)ncnn12 (stereo not drawn) [Example 64] | 100 to 1000 nM | –
23 | c1ccc2sc(NC3=NCC4(CN5CCC4CC5)N3)nc2c1 (single isomer, unassigned) [Example 11a] | < 100 nM | –
24 | Clc1cnc(NC2=NCCC3(CN4CCC3CC4)O2)nc1 (stereo not drawn) [Example 78] | – | EC50 (Table 3, activity class): 1000 to 100000 nM
25 | COc1ccc2nc(NC3=NCC4(CN5CCC4CC5)N3C)sc2c1 (stereo not drawn) [Example 2] | 100 to 1000 nM | –
26 | Clc1ccc2c(NC3=NCC4(CN5CCC4CC5)N3)ncnn12 (stereo not drawn) [Example 65, N-(7-Chloropyrrolo[1,2-f][1,2,4]triazin-4-yl)-3,5-dihydro-1′-azaspiro[imidazole-4,3′-bicyclo[2.2.2]octan]-2-amine] | 100 to 1000 nM | –
27 | Clc1ccc2nc(NC3=NCC4(CN5CCC4CC5)N3)sc2c1 (stereo not drawn) [Example 52] | 100 to 1000 nM | EC50: 154 nM
28 | Clc1cnc(NC2=NCCC3(CN4CCC3CC4)O2)cn1 (stereo not drawn) [Example 72, N-(5-Chloropyrazin-2-yl)-4,5-dihydro-1′-azaspiro[[1,3]oxazine-6,3′-bicyclo[2.2.2]octan]-2-amine] | – | EC50 (Table 3, activity class): 1000 to 100000 nM
29 | CN1C(Nc2nc3ccccc3s2)=NCC12CN1CCC2CC1 (stereo not drawn) [Example 12] | 100 to 1000 nM | –
30 | c1ccc2sc(NC3=NCC4(CN5CCC4CC5)N3)nc2c1 (single isomer, unassigned) [Example 11b] | 1000 to 100000 nM | –
31 | COc1cc(NC2=NCC3(CN4CCC3CC4)N2C)ncn1 (stereo not drawn) [Example 21] | 100 to 1000 nM | –
32 | CN(C)c1ccc2nc(NC3=NCC4(CN5CCC4CC5)N3)sc2n1 (stereo not drawn) [Example 48, N˜2˜-(1′,5′-Dihydrospiro[4-azabicyclo[2.2.2]octane-2,4′-imidazol]-2′-yl)-N˜5˜,N˜5˜-dimethyl[1,3]thiazolo[5,4-b]pyridine-2,5-diamine] | 1000 to 100000 nM | –
33 | Clc1ccc2oc(NC3=NCC4(CN5CCC4CC5)N3)nc2c1 (stereo not drawn) [Example 57] | 100 to 1000 nM | –
34 | c1ccc(-c2cnc(NC3=NC4(CO3)CN3CCC4CC3)s2)cc1 (stereo not drawn) [Example 68, N-(5-Phenylthiazol-2-yl)-5H-1′-azaspiro[oxazole-4,3′-bicyclo[2.2.2]octan]-2-amine] | – | EC50 (Table 2, activity class column): 100 to 1000 nM
35 | c1ccc2sc(NC3=NCCC4(CN5CCC4CC5)O3)nc2c1 (stereo not drawn) [Example 74] | – | EC50 (Table 3, activity class): 100 to 1000 nM
36 | COc1ccc2nc(NC3=NCCC4(CN5CCC4CC5)O3)sc2c1 (stereo not drawn) [Example 70, N-(6-Methoxybenzo[d]thiazol-2-yl)-4,5-dihydro-1′-azaspiro[[1,3]oxazine-6,3′-bicyclo[2.2.2]octan]-2-amine] | – | EC50 (Table 3, activity class): 100 to 1000 nM
